The target of experiment [1] is NAMPT (human, recombinant, C-terminally His-tagged) (Homo sapiens, UniProt P43490). Nature of the experiment: Time-Resolved Fluorescence Resonance Energy Transfer (TR-FRET) Binding Assay of NAMPT. The following applies: without substrates; 6.8 nM NAMPT, 200 nM probe, 3 hours equilibration. As for the experimental part:
Determination of the utility of compounds having Formula (I) as binders to and inhibitors of NAMPT was performed using Time-Resolved Fluorescence Resonance Energy Transfer (TR-FRET) binding assays.
Time-Resolved Fluorescence Resonance Energy Transfer (TR-FRET) Binding Assay of NAMPT
Test compounds were serially diluted (typically 11 half log dilutions) in neat DMSO to 50× final concentrations prior to dilution with assay buffer (50 mM HEPES (NaOH), pH 7.5, 100 mM NaCl, 10 mM MgCl2, 1 mM DTT, 1% Glycerol) to 3× and 6% DMSO. Six μL were transferred to 384-well low-volume plates (Owens Corning #3673). To this, […] of a 1.5× solution containing enzyme, probe and antibody were added. Final concentrations in the 18 μL, reactions were 1× assay buffer, 2% DMSO, 6.8 nM NAMPT (human, recombinant, C-terminally His-tagged), 200 nM probe (a potent nicotinamide-competitive inhibitor conjugated to Oregon Green 488) and 1 nM Tb-anti-His antibody (Invitrogen # PV5895). Reactions were equilibrated at room temperature for 3 hours prior to reading on an Envision multi-label plate reader (Perkin Elmer; Ex=337 nm, Em=520 and 495 nm). Time-resolved FRET ratios (Em520/Em495) were normalized to controls, plotted as a function of compound concentration and fit with the four-parameter logistic equation to determine IC50s.
(In general: Time-resolved FRET reads energy transfer from a long-lived donor to a nearby acceptor.)

The next experiment deals with NAMPT (Homo sapiens, UniProt P43490). Nature of the experiment: TR-FRET Binding Assay of NAMPT with PRPP. The following applies: with 200 μM PRPP and 2.5 mM ATP; 2 nM NAMPT, 2 nM probe, 16 hours equilibration. On the procedure:
Time-Resolved Fluorescence Resonance Energy Transfer (TR-FRET) Binding Assay of NAMPT with PRPP
Compound handling and data processing were identical to the assay in the absence of substrates (above). Final concentrations were 1× assay buffer, 2% DMSO, 2 nM NAMPT, 2 nM probe, 1 nM Tb-anti-His antibody (Invitrogen # PV5895), 200 μM PRPP and 2.5 mM ATP. Reactions were equilibrated for 16 hours prior to measurement to allow for potential enzymatic modification of test compounds.

Another experiment has as its system PC3 cells. In words: NAMPT Cell Proliferation Assay. The format is cell-based. The following applies: Homo sapiens, PC-3, 120 h, 5 days incubation, cell viability by Cell Titer Glo. An outline of the steps:
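Proliferation of PC3 cells treated 5 days with a 10-fold compound series (top 10 μM) was quantified by Cell Titer Glo luminescence; IC50s were fitted from percent inhibition.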
In general terms: Cellular ATP, detected with luciferase, serves as a proxy for viable cell number.

Bounds are passed on as bounds.

NAMPT, sequence (P43490 whole entry): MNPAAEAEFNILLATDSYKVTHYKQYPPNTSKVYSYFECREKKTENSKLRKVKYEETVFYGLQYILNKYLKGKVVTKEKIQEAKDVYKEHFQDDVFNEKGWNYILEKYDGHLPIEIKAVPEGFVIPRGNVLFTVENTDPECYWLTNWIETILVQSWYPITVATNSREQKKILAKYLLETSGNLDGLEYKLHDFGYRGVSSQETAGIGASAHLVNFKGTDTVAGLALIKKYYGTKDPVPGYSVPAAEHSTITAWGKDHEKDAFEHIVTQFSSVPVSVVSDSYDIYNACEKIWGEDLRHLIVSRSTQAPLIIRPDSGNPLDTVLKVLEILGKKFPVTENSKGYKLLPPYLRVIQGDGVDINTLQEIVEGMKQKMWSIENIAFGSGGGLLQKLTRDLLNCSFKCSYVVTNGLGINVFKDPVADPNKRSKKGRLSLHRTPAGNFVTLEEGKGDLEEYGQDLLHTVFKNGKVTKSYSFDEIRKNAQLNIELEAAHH
NAMPT (human, recombinant, C-terminally His-tagged), sequence (P43490 whole entry): as above

As usually defined, the IC50 is the concentration at which inhibition is half-maximal. In the case of `CC(C)Cn1cc(-c2ccc(C(=O)NCc3ccn4ncnc4c3)s2)cn1` [Example 497, 5-[1-(2-methylpropyl)-1H-pyrazol-4-yl]-N-([1,2,4]triazolo[1,5-a]pyridin-7-ylmethyl)thiophene-2-carboxamide], the IC50 in experiment [1] is 24.2 nM; at NAMPT, 2.86 nM; in the experiment on PC3 cells it was 742 nM.

In the case of `COCCC(=O)N(CCC(C)C)c1ncc(C(=O)NCc2ccc3nccn3c2)s1` [Example 61, N-(imidazo[1,2-a]pyridin-6-ylmethyl)-2-[(3-methoxypropanoyl)(3-methylbutyl)amino]-1,3-thiazole-5-carboxamide], the IC50 in experiment [1] was determined as 78.2 nM; at NAMPT it was 0.549 nM; in the experiment with PC3 cells, 6.01 nM.

Consider `N#Cc1cccc(C(=O)N2CCC(c3ccc(C(=O)NCc4ccn5ccnc5c4)cc3)C2)c1` (stereo not drawn) [Example 603, 4-[1-(3-cyanobenzoyl)pyrrolidin-3-yl]-N-(imidazo[1,2-a]pyridin-7-ylmethyl)benzamide], for which the figures for the IC50 (in experiment [1]; on NAMPT; with PC3 cells) were 1030 nM, 1.01 nM and 695 nM, respectively.

In the case of `Cc1nc(CC(=O)N(CC2CCCO2)c2ncc(C(=O)NCc3ccc4nccn4c3)s2)cs1` (stereo not drawn) [Example 124, N-(imidazo[1,2-a]pyridin-6-ylmethyl)-2-{[(2-methyl-1,3-thiazol-4-yl)acetyl](tetrahydrofuran-2-ylmethyl)amino}-1,3-thiazole-5-carboxamide], the results for the IC50 (in experiment [1]; at NAMPT; in the experiment with PC3 cells) were 1100 nM, 2.12 nM and 20.8 nM, respectively.

For the compound `CC(C)C(=O)N1CC=C(c2ncc(C(=O)NCc3ccn4ccnc4c3)s2)CC1` [Example 320, N-(imidazo[1,2-a]pyridin-7-ylmethyl)-2-[1-(2-methylpropanoyl)-1,2,3,6-tetrahydropyridin-4-yl]-1,3-thiazole-5-carboxamide], the values for the IC50 (in experiment [1]; on NAMPT; in the experiment on PC3 cells) were 96.3 nM, 0.208 nM and 171 nM, respectively.

Regarding `O=C(Nc1ccc(C(=O)NCCN2CCCC2=O)cc1)Nc1ccc2nccn2c1` [Example 15, 4-[(imidazo[1,2-a]pyridin-6-ylcarbamoyl)amino]-N-[2-(2-oxopyrrolidin-1-yl)ethyl]benzamide], the values for the IC50 (in experiment [1]; on NAMPT; in the experiment with PC3 cells) were 1760 nM, 0.841 nM and 3970 nM, respectively.

For the compound `CC1(C(=O)N2CCC(c3ccc(C(=O)NCc4ccn5ccnc5c4)s3)C2)CC1` (stereo not drawn) [Example 795, N-(imidazo[1,2-a]pyridin-7-ylmethyl)-5-{1-[(1-methylcyclopropyl)carbonyl]pyrrolidin-3-yl}thiophene-2-carboxamide], the values for the IC50 (in experiment [1]; on NAMPT; with PC3 cells) were 89.6 nM, 0.764 nM and 6.2 nM, respectively.

Take `O=C(NCc1ccn2ccnc2c1)c1cc(Cl)c(-c2cnn(C[C@H]3CCOC3)c2)s1` [Example 579, 4-chloro-N-(imidazo[1,2-a]pyridin-7-ylmethyl)-5-{1-[(3R)-tetrahydrofuran-3-ylmethyl]-1H-pyrazol-4-yl}thiophene-2-carboxamide]: the IC50 was found to be 488 nM in experiment [1], 0.634 nM on NAMPT and 758 nM in the experiment on PC3 cells.

Consider `CC(C)(O)CC(=O)N1CC[C@H](Oc2ccc(C(=O)NCc3ccn4ccnc4c3)cc2)C1` [Example 354, 4-{[(3S)-1-(3-hydroxy-3-methylbutanoyl)pyrrolidin-3-yl]oxy}-N-(imidazo[1,2-a]pyridin-7-ylmethyl)benzamide], for which the IC50 in experiment [1] was greater than 10000 nM; at NAMPT, 0.526 nM; in the experiment on PC3 cells it was 7490 nM.

`CCCCC(=O)NC1(c2ccc(C(=O)NCc3ccn4ccnc4c3)s2)COC1` [Example 327, N-(imidazo[1,2-a]pyridin-7-ylmethyl)-5-[3-(pentanoylamino)oxetan-3-yl]thiophene-2-carboxamide]: the IC50 in experiment [1] came to 1320 nM; on NAMPT, 0.558 nM; in the experiment with PC3 cells, 638 nM.

Turning to `O=C(NCc1ccn2ccnc2c1)c1ccc(C2CN(S(=O)(=O)c3ccccc3)C2)cc1` [Example 569, N-(imidazo[1,2-a]pyridin-7-ylmethyl)-4-[1-(phenylsulfonyl)azetidin-3-yl]benzamide], the IC50 in experiment [1] came out at 217 nM; on NAMPT, 0.669 nM; in the experiment on PC3 cells, 226 nM.

For `O=C(NCc1ccn2ccnc2c1)Nc1ccc(O[C@@H]2CCN(C(=O)C3CCOCC3)C2)cc1` [Example 333, 1-(imidazo[1,2-a]pyridin-7-ylmethyl)-3-(4-{[(3R)-1-(tetrahydro-2H-pyran-4-ylcarbonyl)pyrrolidin-3-yl]oxy}phenyl)urea], the IC50 in experiment [1] was 583 nM; on NAMPT, 0.346 nM; with PC3 cells it was 116 nM.

Regarding `CC(C)[C@H]1COC(=O)N1c1ncc(C(=O)NCc2ccn3ccnc3c2)s1` [Example 185, N-(imidazo[1,2-a]pyridin-7-ylmethyl)-2-[(4S)-2-oxo-4-(propan-2-yl)-1,3-oxazolidin-3-yl]-1,3-thiazole-5-carboxamide], the IC50 is greater than 10000 nM in experiment [1], 1.86 nM on NAMPT and 5050 nM in the experiment on PC3 cells.

As to `O=C(NCc1ccn2ccnc2c1)c1ccc(C2CCN(C(=O)c3cc(F)cc(F)c3)C2)s1` (stereo not drawn) [Example 768, 5-[1-(3,5-difluorobenzoyl)pyrrolidin-3-yl]-N-(imidazo[1,2-a]pyridin-7-ylmethyl)thiophene-2-carboxamide], the IC50 amounted to 28.1 nM in experiment [1], 0.672 nM at NAMPT and 0.905 nM with PC3 cells.

As for `Cc1cc(C(=O)N2CCC(c3ccc(C(=O)NCc4ccn5ccnc5c4)cc3)CC2)c(C)o1` [Example 519, 4-{1-[(2,5-dimethylfuran-3-yl)carbonyl]piperidin-4-yl}-N-(imidazo[1,2-a]pyridin-7-ylmethyl)benzamide], the IC50 in experiment [1] was found to be 218 nM; on NAMPT, 0.338 nM; with PC3 cells it was 60.9 nM.

Regarding `Cc1ccccc1C(=O)N1CCC(c2ccc(C(=O)NCc3ccn4ccnc4c3)cc2)C1` (stereo not drawn) [Example 595, N-(imidazo[1,2-a]pyridin-7-ylmethyl)-4-[1-(2-methylbenzoyl)pyrrolidin-3-yl]benzamide], the IC50 came to 133 nM in experiment [1], 0.746 nM at NAMPT and 6.93 nM in the experiment on PC3 cells.

Take `CC[C@H](C)C(=O)N1CC(c2ccc(C(=O)NCc3ccn4ccnc4c3)cc2)C1` [Example 547, N-(imidazo[1,2-a]pyridin-7-ylmethyl)-4-{1-[(2S)-2-methylbutanoyl]azetidin-3-yl}benzamide]: the IC50 in experiment [1] was 498 nM; on NAMPT it was 0.423 nM; in the experiment on PC3 cells, 25.6 nM.

Turning to `O=C(NCc1ccn2ccnc2c1)c1ccc(O[C@H]2CCN(C(=O)[C@H]3CCCO3)C2)cc1` [Example 340, N-(imidazo[1,2-a]pyridin-7-ylmethyl)-4-({(3S)-1-[(2R)-tetrahydrofuran-2-ylcarbonyl]pyrrolidin-3-yl}oxy)benzamide], the IC50 in experiment [1] was greater than 10000 nM; at NAMPT, 0.817 nM; in the experiment with PC3 cells, greater than 10000 nM.

`O=C(NCCCCC1CCN(C(=O)C2CCOCC2)CC1)Nc1ccc2nccn2c1` [Example 69, 1-imidazo[1,2-a]pyridin-6-yl-3-{4-[1-(tetrahydro-2H-pyran-4-ylcarbonyl)piperidin-4-yl]butyl}urea]: the values for the IC50 (in experiment [1]; at NAMPT; in the experiment with PC3 cells) were 676 nM, 0.268 nM and 16.6 nM, respectively.

Take `O=C(NCc1ccc2nccn2c1)c1cnc(N2Cc3ccccc3C2)s1` [Example 88, 2-(1,3-dihydro-2H-isoindol-2-yl)-N-(imidazo[1,2-a]pyridin-6-ylmethyl)-1,3-thiazole-5-carboxamide]: the IC50 was determined as 2850 nM in experiment [1], 8.55 nM on NAMPT and 8110 nM with PC3 cells.

Regarding `Cn1cccc1CCC(=O)N(C[C@H]1CCCO1)c1ncc(C(=O)NCc2ccn3ccnc3c2)s1` [Example 203, N-(imidazo[1,2-a]pyridin-7-ylmethyl)-2-{[3-(1-methyl-1H-pyrrol-2-yl)propanoyl][(2R)-tetrahydrofuran-2-ylmethyl]amino}-1,3-thiazole-5-carboxamide], the IC50 was determined as 13.7 nM in experiment [1], 0.21 nM at NAMPT and 2.39 nM in the experiment on PC3 cells.

Regarding `CC(C)Cn1cc(-c2ccc(C(=O)NCc3ccc4ncnn4c3)o2)cn1` [Example 820, 5-[1-(2-methylpropyl)-1H-pyrazol-4-yl]-N-([1,2,4]triazolo[1,5-a]pyridin-6-ylmethyl)furan-2-carboxamide], the IC50 in experiment [1] came out at 499 nM; on NAMPT, 9.28 nM; in the experiment on PC3 cells it was 802 nM.
